Results on one compound are retold here after patent US20220000894A1, “Substance for treatment or prevention of diseases, method for designing the same, and method for preparing the same” (priority 2018, published 2022).

This data set relates to patients with allergic rhinitis. Description: Clinical application trial for treatment of allergic rhinitis. The format is in vivo, human. The method, then:
1. Clinical data: 60 cases (a total number) of outpatients and inpatients with allergic rhinitis were enrolled, and were randomly divided into a treatment group with 30 patients and a control group with 30 patients.
2. Diagnosis criteria: 2 or more clinical symptoms such as sneezing, clear water-like nasal discharge, nasal congestion, and nasal itching, appearing continuously or continually for 1 hour or more every day. It may be accompanied by eye symptoms such as eye itching and conjunctival hyperemia. Common signs often include pale nasal mucosa, edema, and watery nasal discharge. Positive in the allergen skin prick test.
3. […] The patients in the control group orally took loratadine 10 mg per time, once day, for 30 days.
4. […] Total effective rate=cured rate+effective rate.

With `CCOC(=O)N1CCC(=C2c3ccc(Cl)cc3CCc3cccnc32)CC1` [loratadine], the recurrence after treatment result (6-month follow-up / after drug discontinuance) is on record as “allergic symptoms appeared after contact with allergens after drug discontinuance”. Moreover, under “30 patients per group”, the “Effective (number of patients)” value was determined as 20, the “Ineffective (number of patients)” value turned out to be 10 and the “Total effective rate (%) (cured rate + effective rate)” value turned out to be 66.67%. Moreover, the “Cured (number of patients)” value (30 patients per group, cured = symptoms and signs disappear for 60 days without recurrence) worked out at 0. In addition, the adverse reactions occurred (control group of 30 patients) came out at 5 cases.
